# System: HCT116 cells
# Assay: Mitotic arrest / mitotic index by phase-contrast microscopy
# Assay type: cell-based, human
# Details: HCT116, 24 h
# Experimental: Disruption of cell cycle progression is considered one of the most common cytotoxic mechanisms of anticancer drugs. Moreover, the antimitotic effect of BP-M345 (2) has been previously reported. Therefore, compounds 6, 7, and 13 were tested for their capability to induce cell cycle arrest. HCT116 cells were exposed for 24 h to the compounds and then analyzed using phase contrast microscopy for morphological changes. Untreated and dimethyl sulfoxide (DMSO; solvent)-treated cells were used as negative controls. Cell exposure to nocodazole, an antimitotic agent, was used as a positive control. […] We thus calculated the mitotic index (MI), and observed a significant increase in MI in 7-treated cells (22.76 ± 4.30%) compared to the untreated (12.68 ± 1.98%) or DMSO-treated (12.81 ± 1.45%) (Figure 4c).
# A total of 1.2 × 10^5 HCT-116 cells were grown in six-well dishes and treated for 24 h with 3.26 µM of compound 7. Cells treated with 1 µM nocodazole were used as a positive control for antimitotic activity. Untreated cells and cells treated with DMSO were included to exclude the cytotoxicity of the compound solvent. Mitotic index, and the percentage of mitotic cells over the total cell population were determined via cell-rounding under phase-contrast microscopy from at least ten random microscope fields.
# For phase contrast microscopy images, a Nikon TE 2000-U microscope (Nikon, Amsterdam, The Netherlands) with a 10× objective was used, coupled to a DXM1200F digital camera with Nikon ACT-1 software (Melville, NY, USA). For fluorescence images, an Axio Observer Z.1 SD microscope (Carl Zeiss, Germany) was used, coupled to an AxioCam MR3, with the Plan Apochromatic 63×/NA 1.4 objective. The images were processed using ImageJ, version 1.51.
compound,measurement,setting,value
"CCCc1c(OCCNC(=O)/C=C/c2cc(OC)c(OC)c(OC)c2)ccc(C(=O)/C=C/c2cc(OC)c(OC)c(OC)c2)c1O [Compound 7, (E)-N-(2-(3-hydroxy-2-propyl-4-((E)-3-(3,4,5-trimethoxyphenyl)acryloyl)phenoxy)ethyl)-3-(3,4,5-trimethoxyphenyl)acrylamide]",Mitotic index (MI),"at GI50 (3.26 µM), untreated 12.68 ± 1.98%",22.76 ± 4.30%
same,Accumulation of bright and rounded (mitotic) cells,phase contrast microscopy,accumulation of bright and rounded cells

# From PMC10303900, “Discovery of a New Chalcone-Trimethoxycinnamide Hybrid with Antimitotic Effect: Design, Synthesis, and Structure—Activity Relationship Studies” (Pharmaceuticals, 2023)
